# From patent publication US20240255521A1, “Cilia Protein as Biomarkers and Methods of Use” (The Medical College of Wisconsin, Inc., priority 2021, published 2024)
# “Also recorded” adds a separate entry of the source.
# What was measured:
# HBMVECs = test: PMA-induced oxidative stress in HBMVECs with or without NOX inhibitor; ROS, HO-1 and cilia proteins by flow cytometry (MFI); type: cell-based, human
# Description: Primary HBMVECs (Cell Systems Corporation catalog ACBRI 376) and HUVECs (Glyco Tech) were maintained at 37° C. in a 5% CO2 incubator in endothelial cell complete medium (Promocell, catalog C22010). As per vendor's description, cells were isolated from the cortex region of the brain from a pediatric donor. The cells were isolated without using antibody labeling to preserve the cells' natural properties for enhanced biological relevance. LL-CPK1 (CL101.1TM) porcine renal epithelial cells from proximal tubule were obtained from ATCC. All cell culture wells were seeded equally, and wells were randomized to control versus experimental conditions with duplicates or triplicates per condition. All experiments were performed between passages 4 and 6. Cells that had reached approximately 90% confluence were used in the shear stress experiment. For ROS quantification experiments, cells were treated with PMA (Sigma, catalog P8139-5MG) at a concentration of 50 ng/mL for 1 hour. To inhibit ROS production in respective experimental groups, cells were treated with 20 μM NOX inhibitor VAS 2870 (Sigma, catalog SML0273-5MG) 1 hour prior to PMA treatment.
# Single-cell suspensions were washed 3 times with FACS buffer (1×PBS with 5% FBS and 0.1% NaN3) at 300 g for 5 minutes and were subsequently incubated with Live/Dead fixable yellow dead cell stain as per manufacturer's protocol, to exclude any dead cells, wherever applicable. Then, cells were fixed and permeabilized using Cytofix/Cytoperm buffer (BD, catalog 554722) or transcription factor buffer set (BD, catalog 562574) and stained for the following proteins: ARL13b, IFT88, Inversin, Dynein, γ-tubulin, Alk1, KLF4, HO-1, NRF2, and bACTIN. Suitable secondary reagents were used to detect the respective proteins. Primary antibodies were diluted 1:50, and secondary antibodies were diluted 1:500. BD perm wash buffer (catalog 554723) was used for antibody dilutions and washing. Primary antibodies were incubated for 45 minutes and secondaries for 30 minutes at 4° C. Suitable secondary antibody controls were included. To quantify total ROS, assay kit was used as per the manufacturer's instruction (Thermo Fisher Scientific, catalog 88-5930-74). After the completion of staining, cells were resuspended in FACS buffer. Stained cells were run on a flow cytometer (BD LSRFortessa). Sample acquisition was done using FACSDiva software (BD) with subsequent analysis on FlowJo software. To determine the presence of the ciliary protein ARL13b on human RBCs, unlabeled RBCs prior to infusion into the variable height flow chamber, and effluent containing RBCs collected postflow and RBCs postinteraction with brain ECs, were labeled with FITC-conjugated Arl13b antibody for 30 minutes on ice. RBCs were then washed and tested by flow cytometric analysis as previously described (49). To determine whether ROS generation in brain ECs can be increased by sickle RBCs and contributes to deciliation, slides coated with brain ECs were sham-treated or pretreated with the NOX inhibitor apocynin at 10 μM for 1 hour at 37° C., washed, and fitted into the flow chamber. Treated brain ECs were then exposed to unlabeled sickle RBCs for 10 minutes. Sickle RBCs were lysed with RBC lysis buffer and brain ECs scraped from the glass slide for testing for ROS levels using CM-H2-DCFDA (Invitrogen) as described previously in detail (50). One hundred thousand events per sample were acquired and tested by flow cytometric analysis. In separate experiments, and as described above, unlabeled sickle RBCs were tested by flow cytometry for ARL13b ciliary protein binding prior to infusion into the chamber (baseline levels) and postflow and once sickle RBCs interacted with brain ECs treated with 10 μM apocynin.
# [1] = system: Human brain microvascular ECs; test: ROS generation in brain ECs exposed to sickle RBCs (CM-H2-DCFDA, flow cytometry); type: cell-based; conditions: brain ECs pretreated with apocynin 10 μM for 1 hour, then exposed to SS RBCs for 10 minutes; P<0.0001
# Description: Single-cell suspensions were washed 3 times with FACS buffer (1×PBS with 5% FBS and 0.1% NaN3) at 300 g for 5 minutes and were subsequently incubated with Live/Dead fixable yellow dead cell stain as per manufacturer's protocol, to exclude any dead cells, wherever applicable. Then, cells were fixed and permeabilized using Cytofix/Cytoperm buffer (BD, catalog 554722) or transcription factor buffer set (BD, catalog 562574) and stained for the following proteins: ARL13b, IFT88, Inversin, Dynein, γ-tubulin, Alk1, KLF4, HO-1, NRF2, and bACTIN. Suitable secondary reagents were used to detect the respective proteins. Primary antibodies were diluted 1:50, and secondary antibodies were diluted 1:500. BD perm wash buffer (catalog 554723) was used for antibody dilutions and washing. Primary antibodies were incubated for 45 minutes and secondaries for 30 minutes at 4° C. Suitable secondary antibody controls were included. To quantify total ROS, assay kit was used as per the manufacturer's instruction (Thermo Fisher Scientific, catalog 88-5930-74). After the completion of staining, cells were resuspended in FACS buffer. Stained cells were run on a flow cytometer (BD LSRFortessa). Sample acquisition was done using FACSDiva software (BD) with subsequent analysis on FlowJo software. […]
# ARL13b on SS RBCs = test: ARL13b bound to SS RBCs before and after flow chamber interaction with apocynin-pretreated brain ECs (flow cytometry); type: cell-based, human; conditions: ECs treated with 10 μM apocynin
# Description: HBMVECs were cultured until they reached confluence on clear glass slides precoated with 2% gelatin. Slides coated with brain ECs were washed, then fit into a variable height flow chamber and tested for their ability to support adhesion of RBCs. The flow chamber was mounted on the stage of an inverted phase contrast microscope (Diaphot, Nikon Inc.) connected to a thermoplate (Tokai Hit Co., Ltd.) set at 37° C. Fluorescence-labeled RBCs suspended at 0.2% (v/v) in PBS with Ca^2+ and Mg^2+ were infused into the flow chamber and allowed to adhere to brain ECs for 10 minutes without flow. Before exposure to flow, a minimum of 3 fields at each of 7 different locations along a line oriented to future flow were examined, and the total number of fluorescent cells was counted. Fluid flow (PBS with Ca^2+ and Mg^2+) with a calibrated syringe pump was then started for a period of 15 minutes. Effluent was collected and tested by flow cytometry for cilia shedding from brain ECs by RBC contact. After exposure to flow, the fields were examined, and the number of fluorescent adherent RBCs to brain ECs was counted. The fraction of adherent cells was presented as number of cells attached per field after exposure to flow/total number of cells present per field before flow. […] To quantify total ROS, assay kit was used as per the manufacturer's instruction (Thermo Fisher Scientific, catalog 88-5930-74). […]
# [2] = PMA 50 ng/mL for 1 hour vs untreated
# [3] = 20 μM VAS2870 1 hour prior to PMA 50 ng/mL
smiles,measurement,setting,value
CCCCCCCCCCCCCC(=O)O[C@@H]1[C@@H](C)[C@@]2(O)[C@@H](C=C(CO)C[C@]3(O)C(=O)C(C)=C[C@@H]23)[C@@H]2C(C)(C)[C@]12OC(C)=O [PMA],HO-1 levels,HBMVECs; [2],lower
same,"cilia-associated proteins NRF2, IFT88 and γ-tubulin levels",HBMVECs; [2],downregulated; also recorded: reduced; also recorded: decreased
same,total ROS,HBMVECs; [2],induced ROS; also recorded: enhanced total ROS
c1ccc(Cn2nnc3c(Sc4nc5ccccc5o4)ncnc32)cc1 [VAS2870],HO-1 levels,HBMVECs; [3],restored to control levels
same,"cilia-associated proteins NRF2, IFT88 and γ-tubulin levels",HBMVECs; [3],rescued; also recorded: restored to baseline; also recorded: returned to baseline
same,total ROS,"HBMVECs; 20 μM VAS2870 1 hour prior to PMA 50 ng/mL, vs PMA alone",partially attenuated; also recorded: quenched ROS production
COc1cc(C(C)=O)ccc1O [apocynin],ROS generation in ECs,[1],reduced ROS generation in ECs to baseline levels
same,cilia protein expression on sickle RBCs exposed to apocynin-treated brain ECs (in words),ARL13b on SS RBCs,decreased cilia protein expression
same,ARL13b expression on SS RBCs after exposure to apocynin-treated brain ECs,"ARL13b on SS RBCs; before exposure SS RBCs showed approximately 35% ARL13b, P<0.05, n=6",approximately 20%
